Assay results taken from US20220193029A1, “BRYOSTATIN COMPOUNDS FOR ENHANCEMENT OF IMMUNOTHERAPY” (priority 2019, published 2022).

How the values were obtained:
[1] = system: PKCδ-GFP fusion protein; assay: PKCδ-GFP translocation assay in living CHO-k1 cells (confocal microscopy); assay type: cell-based, Chinese hamster; conditions: for concentration* (minimum effective concentration required to induce translocation of PKC-GFP to the membrane) / % Translocation: CHO-k1 cells; for % Translocation: maximum translocation of PKCδ-GFP to the plasma membrane at the concentration printed in the same cell, SUW212: only brief translocation observed; for PKC translocation behavior / dynamics of PKC activation: time course, FIG. 6 panels C-D
Procedure: Because a prerequisite for PKC pathway involvement is binding to PKC, compounds were initially evaluated for PKC affinity in a cell-free competitive binding assay with tritiated phorbol dibutyrate ([^3H]-PDBu). Assays were performed with representative members of both the conventional (PKCα) and novel (PKCδ) PKC families. Subsequently, compounds were assayed for PKC activation in living cells using an isoform translocation assay.
Chinese hamster ovary factor K1 (CHO-k1, ATCC) cells were cultured in F-12 Kaighn's media (Hyclone, 10% fetal bovine serum, 1% penicillin/streptomycin added, referred to as F-12+/+ below) at 37° C. in an incubator (5% CO2). Cell cultures were maintained by splitting cells 1:3 when they reached ˜75-100% confluence (every 2-3 days) as follows:
1 mL of the cell suspension was then added to 9 mL of fresh F-12+/+ and the sample was sub-cultured until reaching confluence (˜2-3 days).
Cells were counted using a Countess II Automated Cell Counter (Fisher). The cell suspension was diluted to 240,000 cells/mL with fresh F-12+/+ and 2.5 mL of this diluted stock was added to one well in a 6-well plate. The cells were then cultured for 24 hours.
F-12+/+ was aspirated and cells were washed with F-12−/−. 2 mL of fresh F-12−/− was then added to each well, taking care not to disturb adherent cells. For each well of CHO-k1 cells, 12.5 μL Lipofectamine 2000 reagent (Invitrogen) was added to 250 μL Opti-MEM reduced serum media (Invitrogen) in a polypropylene tube and incubated for 20 minutes at RT. Meanwhile, for each well, 4 μg of PKCδ-GFP pDNA and 250 μL Opti-MEM reduced serum media was added to a separate polypropylene tube. 250 μL of the Lipofectamine 2000 suspension was added to the DNA suspension and the solution incubated for 30 minutes at RT. 500 μL of the Lipofectamine/DNA suspension was added to the respective wells of the 6-well plate. The cells were then incubated at 37° C. (5% CO2) for ˜24 hrs.
F-12+/+ was aspirated and cells were washed with F-12−/−. 2.4 mL of fresh F-12−/− was then added to each well, taking care not to disturb adherent cells. A 4 μg aliquot of PKCδ-GFP pDNA was added to PBS (pH 5.5, final volume 100 μL). 5.6 μL of DA 13:11 (2 mM stock in DMSO) was then added to the DNA solution, and the mixture was gently mixed (by flicking) for 20 seconds, at which point it was added directly to the respective wells of the 6-well plate. The cells were then incubated at 37° C. (5% C02) for ˜24 hrs.
After incubation, the media was aspirated and cells were washed with PBS (2.0 mL) and trypsinized (500 μL). The cell suspension was then diluted with 2.0 mL F-12+/+. 200 μL aliquots were added to 3 wells of a Lab-Tek II 4-well chambered coverglass slide (Fisher), producing 4 slides in total, each with three wells of cells. The cell suspension was directly diluted with 600 μL of additional F-12+/+. The resulting samples were incubated for ˜24 hrs. prior to imaging.
Fluorescent images were obtained using a Leica SP8 White Light Confocal microscope and the Leica AF software package. Prior to analysis, media was aspirated and 800 μL of PBS (Hyclone, without Ca^2+ or Mg^2+) supplemented with glucose (10 mM) was added to each well of the chambered coverglass slide. Bryostatin and bryostatin analogs were diluted to the appropriate concentration in 200 μL of 10 mM glucose in PBS. Cells were located for imaging and data was recorded for three wells in parallel, imaging at predetermined positions in each well using adaptive focus control. Cells were imaged at 30 second intervals following the addition of compound (set to t=0) for 20-40 minutes. Data were recorded at room temperature. Images were exported as .lif files and fluorescence intensity was analyzed using FIJI (NIH) software.

[2] = system: CD22 surface expression in NALM6 cells; assay: CD22 surface expression assay by flow cytometry; assay type: cell-based, human; conditions: NALM6 cells; for fold induction at 0.001 µM: Homo sapiens, NALM-6, read-out: Fold increase CD22 expression; for fold induction at 0.001 µM / Fold increase CD22 expression: At 1 nM, relative to DMSO control
Procedure: Cell cultures were maintained between 4×10^5 and 3×10^6 cells/mL according to vendor instructions.
Cell suspension from a confluent T75 flask (Fisher) was transferred to a 15 mL falcon tube and centrifuged at 1100 rpm for 7 minutes. […] Cells were counted using a Countess II Automated Cell Counter (Fisher). […] 199 μL of this stock was added to 24 wells (enough for triplicate measurements for 8 different experimental conditions) in a 96-well plate. […] 1 μL of DMSO or the appropriate stock solution of compound in DMSO was added to each well. Cells were incubated for 24 hours, at which point the cell suspensions were transferred to 1.5 mL Eppendorf tubes and diluted with 1.0 mL of PBS (Hyclone, without Ca^2+ or Mg^2+). Samples were centrifuged at 2000 rpm for 5 min at RT. […] Cells were sub-cultured between 2×10^5 and 3×10^6 cells/mL in 24-well plates for an additional 24 hrs-7 days, at which point CD22 surface expression was assayed by flow cytometry.
Cells from one well were counted using a Countess II Automated Cell Counter (Fisher). ˜200,000-300,000 cells from each well were added to 1.5 mL Eppendorf tubes containing PBS (final volume ˜1.2 mL). The cell suspensions were centrifuged at 1500 rpm for 7 minutes at 4° C. The supernatant was aspirated, and the cell pellet was resuspended in 99 μL of pre-chilled FACS buffer (0.5% w/v BSA in PBS). […] Samples were then diluted with an additional 1.0 mL of FACS buffer and centrifuged at 1500 rpm for 7 minutes at 4° C. […] Cells were stained with DAPI and CD22 surface expression was analyzed using the FACScan Analyzer at the Stanford Shared FACS Facility. Data analysis was performed using FlowJo and Microsoft Excel.

Row | Structure (SMILES) | cytosolic PKC translocated ([1]; 1000 nM) [%] | concentration* (minimum effective concentration required to induce translocation of PKC-GFP to the membrane) [1] [nM] | % Translocation [1] [%] | fold induction at 0.001 µM [2] | PKC translocation behavior / dynamics of PKC activation [1] | Fold increase CD22 expression [2] [fold] | activity in the CD22 induction assay, in words ([2]; 1 nM or 10 nM, 24 hours)
1 | CCCCCC#CC(=O)O[C@H]1/C(=C/C(=O)OC)C[C@H]2C[C@H]([C@@H](C)O)OC(=O)C[C@H](O)C[C@@H]3C[C@H](OC(C)=O)C(C)(C)[C@](O)(C[C@@H]4C[C@@](O)(CO)C[C@H](/C=C/C(C)(C)[C@]1(O)O2)O4)O3 [SUW203] | ~50 | 1000 | 50 | 1.16 | – | – | –
2 | CCC/C=C/C=C/C(=O)O[C@H]1/C(=C/C(=O)OC)C[C@H]2C[C@H]([C@@H](C)O)OC(=O)C[C@H](O)C[C@@H]3C[C@H](OC(C)=O)C(C)(C)[C@](O)(C[C@@H]4C[C@H](OC(C)=O)C[C@H](/C=C/C(C)(C)[C@]1(O)O2)O4)O3 [SUW206] | – | 200 | 60 | 1.63 | almost identical behavior both to each other and to bryostatin 1 | – | –
3 | CCC/C=C/C=C/C(=O)O[C@H]1/C(=C/C(=O)OC)C[C@H]2C[C@H]([C@@H](C)O)OC(=O)C[C@H](O)C[C@@H]3C[C@H](OC(C)=O)C(C)(C)[C@](O)(C[C@@H]4C[C@@H](OC(C)=O)C[C@H](/C=C/C(C)(C)[C@]1(O)O2)O4)O3 [SUW207] | – | 200 | 60 | 1.33 | almost identical behavior both to each other and to bryostatin 1 | – | –
4 | CCCC=CC=CC(=O)OC1C(=CC(=O)OC)CC2CC(C(C)O)OC(=O)CC(O)CC3CC(OC(C)=O)C(C)(C)C(O)(CC4CC(=CC(=O)OCC)CC(C=CC(C)(C)C1(O)O2)O4)O3 (centres unmarked) [SUW217] | – | 200 | 75 | – | – | 1.97 | –
5 | CCCC=CC=CC(=O)OC1C(=CC(=O)OC)CC2CC(C(C)O)OC(=O)CC(O)CC3CC(OC(C)=O)C(C)(C)C(O)(CC4CC(=CC(=O)OCC)CC(C=CC(C)(C)C1(O)O2)O4)O3 (centres unmarked) [SUW218] | – | 200 | 55 | – | more sustained linear activation dynamics | 1.92 | –
6 | CCCCCCCC(=O)O[C@H]1/C(=C/C(=O)OC)C[C@H]2C[C@H]([C@@H](C)O)OC(=O)C[C@H](O)C[C@@H]3C[C@H](OC(C)=O)C(C)(C)[C@](O)(C[C@@H]4C[C@@H](C)C[C@H](/C=C/C(C)(C)[C@]1(O)O2)O4)O3 [SUW226] | – | 200 | 75 | 1.76 | – | – | –
7 | C=CCOC(=O)/C=C1/C[C@H]2C[C@]3(O)O[C@H](C[C@@H](O)CC(=O)O[C@@H]([C@@H](C)O)C[C@@H]4C/C(=C\C(=O)OC)[C@H](OC(=O)/C=C/C=C/CCC)[C@@](O)(O4)C(C)(C)/C=C/[C@@H](C1)O2)C[C@H](OC(C)=O)C3(C)C [SUW229] | – | 200 | 50 | – | more sustained linear activation dynamics | – | top performer
